Measured values published in PMC3896228, “Physalin H from Solanum nigrum as an Hh signaling inhibitor blocks GLI1–DNA-complex formation” (Beilstein Journal of Organic Chemistry, 2014).
Read-outs that look alike come from different tables or passages of the source.

What was measured:
[1] = system: GLI1 transcriptional activity; conditions: cited from earlier work
DU145 = assay: Cytotoxicity test against DU145; type: cell-based
From the text: (§1) […]. […] […]. […] […].

[2] = Cytotoxicity test against C3H10T1/2 normal cells; type: cell-based; conditions: mouse, C3H10T1/2 cells (normal cell line)
From the text: as §1

C3H10T1/2 [3] = assay: Cytotoxicity test against C3H10T1/2 normal cells; type: cell-based; conditions: normal cell line
From the text: as §1

PANC1 [4] = assay: Cytotoxicity test against PANC1; type: cell-based; conditions: Homo sapiens, PANC-1
From the text: as §1

[5] = system: assay cells (HaCaT cells expressing exogenous GLI1); assay: Cytotoxicity against reporter assay cells (cell viability)
From the text: (§2) We evaluated the Hh inhibitory activity of the isolated compounds by using a previously described method. […] In addition we always checked the cytotoxicity of the compounds against the assay cells, because a decrease in the number of living cells also correlates with a reduced luciferase activity. […] Further, we examined the cytotoxicity against cancer cells, human pancreatic (PANC1) and prostate (DU145) cancer cell lines, in which Hh signaling is aberrantly activated (Table 1).
(§3) The NMR measurements were carried out with JEOL ECP400 and ECP600 spectrometers in deuterated solvents and the residual proton chemical shift was taken as an internal standard. MS data were obtained with a JEOL JMS-T100LP (ESI). IR spectra were measured by using the ATR (attenuated total reflection) method on a Jasco FT-IR 230 spectrophotometer. […] The procedures for the GLI1-mediated transcriptional activity assay, Western blot analysis and cytotoxicity test were as previously described. The GST–GLI1 protein was produced as previously described.

[6] = system: GLI1 transcriptional activity; assay: cells; type: cell-based; conditions: for IC50: read-out: GLI1 transcriptional inhibition, IC50
From the text: In addition, we evaluated the Hh inhibitory activity by assessing the cytotoxicity against cancer cells and the expression of Hh-related proteins.
as §2, §3

PANC1 [7] = conditions: read-out: Cytotoxicity, IC50 PANC1; cited from earlier work
C3H10T1/2 [8] = conditions: cited from earlier work; for survival of C3H10T1/2 cells: normal cell line; for IC50: read-out: Cytotoxicity, IC50 C3H10T1/2, C3H10T1/2
[9] = target: T1, GLI1–DNA complex (GST–GLI1 171-515aa, GLI1–BS) (Homo sapiens, UniProt P08151); type: binding; conditions: EMSA, 200 μM
T1 construct: GST–GLI1 (171-515aa); made in house; host or cells: Escherichia coli
T1 sequence (P08151 171-515): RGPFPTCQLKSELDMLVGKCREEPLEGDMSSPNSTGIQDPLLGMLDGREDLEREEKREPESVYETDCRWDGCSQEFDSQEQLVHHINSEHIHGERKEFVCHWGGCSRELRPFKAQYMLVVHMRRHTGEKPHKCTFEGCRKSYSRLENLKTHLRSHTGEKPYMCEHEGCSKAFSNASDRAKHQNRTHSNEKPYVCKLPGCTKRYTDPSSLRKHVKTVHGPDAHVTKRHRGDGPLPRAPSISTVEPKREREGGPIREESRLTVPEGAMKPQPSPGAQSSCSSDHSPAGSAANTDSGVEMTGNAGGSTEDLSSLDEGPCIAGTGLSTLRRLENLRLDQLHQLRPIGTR

PTCH [10] = assay: Western blot analysis of PTCH in GLI1-overexpressing HaCaT cells; type: cell-based; conditions: 3.0 μM, HaCaT cells expressing exogenous GLI1, Western blot
From the text: as §1
(§4) Figure 4 Inhibition of protein expression by compound 1. (A) Western blot analysis of PTCH, BCL-2 protein levels in GLI1-overexpressing HaCaT cells after treatment with 1. (B) Western blot analysis of PTCH, BCL-2 protein levels in DU145 cells after treatment with 1.

BCL2 [11] = assay: Western blot analysis of BCL2 in GLI1-overexpressing HaCaT cells; type: cell-based; conditions: 3.0 μM, HaCaT cells expressing exogenous GLI1, Western blot
From the text: as §1, §4

BCL2 [12] = assay: Western blot analysis of BCL2 in DU145 cells; type: cell-based, human; conditions: 3.0 μM, DU145 cancer cells
From the text: as §1, §4

PTCH [13] = assay: Western blot analysis of PTCH in DU145 cells; type: cell-based, human; conditions: 3.0 μM, DU145 cancer cells
From the text: as §1, §4

[14] = Homo sapiens, DU-145; read-out: Cytotoxicity, IC50 DU145
[15] = read-out: GLI1 transcriptional inhibition, IC50

C=C(C)[C@@H]1CC[C@]2(C(=O)O)CC[C@]3(C)[C@H](CC[C@@H]4[C@@]5(C)[C@H](C=O)[C@@H](O)C(C)(C)[C@@H]5CC[C@]43C)[C@@H]12 [colubrinic acid, reference compound]
IC50 ([1]; read-out: Hh inhibition IC50): 38 µM

CC12C(=O)CC=CC1=CCC1C2CCC2(O)C(=O)OC3(C)C4CC5(C)C(COC16OC23C5C6=O)C(=O)O4 (centres unmarked) [isophysalin B (4), isophysalin B]
IC50 (DU145; [14]): > 12 µM
IC50 [2]: > 12 µM
survival of C3H10T1/2 cells (C3H10T1/2 [3]): not significantly affected
IC50 (PANC1 [4]): 12 µM
cytotoxicity against assay cells [5]: low cytotoxicity
IC50 [6]: 4.2 µM

C[C@]12C(=O)C=CCC1=CC[C@@H]1[C@@H]2CC[C@@]2(O)C(=O)O[C@@]3(C)[C@H]4C[C@]5(C)[C@@H](CO[C@@]16O[C@]23[C@H]5C6=O)C(=O)O4 [physalin B (6), physalin B]
IC50 (PANC1 [7]): 5.3 µM
survival of C3H10T1/2 cells (C3H10T1/2 [8]): not significantly affected
IC50 (C3H10T1/2 [8]): 17 µM
IC50 [1, 15]: 0.62 µM

C=C1C(=O)OC2CC1(C)C1C(=O)C3(O)OC14C(O)(CCC1C3CC=C3CC=CC(=O)C31C)C(=O)OC24C (centres unmarked) [physalin B (6]
IC50 [1, 15]: 0.62 µM

C[C@@]12C[C@H]3OC(=O)[C@@H]1CO[C@]14O[C@]5([C@H]2C1=O)[C@@](O)(CC[C@H]1[C@H]4C[C@H]2O[C@]24CC=CC(=O)[C@]14C)C(=O)O[C@@]35C [physalin F (5), physalin F]
IC50 (PANC1 [7]): 2.7 µM
survival of C3H10T1/2 cells (C3H10T1/2 [8]): not significantly affected
IC50 (C3H10T1/2 [8]): 15 µM
IC50 [1, 15]: 0.66 µM

CC12CC3OC(=O)C1COC14OC5(C2C1=O)C(O)(CCC1C4CC2OC24CC=CC(=O)C14C)C(=O)OC35C (centres unmarked) [physalin F (5]
IC50 [1, 15]: 0.66 µM

C[C@]12C(=O)C=CC=C1[C@@H](O)C[C@@H]1[C@@H]2CC[C@@]2(O)C(=O)O[C@@]3(C)[C@H]4C[C@]5(C)[C@@H](CO[C@@]16O[C@]23[C@H]5C6=O)C(=O)O4 [physalin G (2), physalin G]
IC50 (DU145; Homo sapiens, DU-145, read-out: Cytotoxicity, IC50 DU145): > 12 µM
formation of GLI1–DNA complex [9]: did not inhibit
IC50 [6]: 47.1 µM

CC12C(=O)C=CC=C1C(O)CC1C2CCC2(O)C(=O)OC3(C)C4CC5(C)C(COC16OC23C5C6=O)C(=O)O4 (centres unmarked) [physalin G (2]
IC50 [6]: 47.1 µM

CC12CC3OC(=O)C1COC14OC5(C2C1=O)C(O)(CCC1C4CC(O)C2(Cl)CC=CC(=O)C12C)C(=O)OC35C (centres unmarked) [physalin H (1), physalin H]
IC50 (DU145; [14]): 6.8 µM
expression of PTCH (PTCH [10]): inhibited the expression
IC50 [2]: > 6 µM
survival of C3H10T1/2 cells (C3H10T1/2 [3]): not significantly affected
IC50 (PANC1 [4]): 5.7 µM
expression of BCL2 (BCL2 [11]): inhibited the expression
expression of BCL2 (BCL2 [12]): decreased the expression
expression of PTCH (PTCH [13]): only slightly affected

CC12CC3OC(=O)C1COC14OC5(C2C1=O)C(O)(CCC1C4CC(O)C24C=CC(OO2)C(=O)C14C)C(=O)OC35C (centres unmarked) [physalin K (3), physalin K]
Hh inhibition [6]: did not show Hh inhibition at all

COC(=O)[C@]1(C)CCC[C@]2(C)c3cc4occc4c(C)c3C[C@@H](OC(C)=O)[C@@H]12 [taepeenin D, reference compound]
IC50 ([1]; read-out: Hh inhibition IC50): 1.6 µM

C=CC(C)(O)CC[C@@]1(C)C2=C([C@H](OC(C)=O)[C@H](OC(C)=O)[C@H]1C)C(C)(C)CCC2 (some centres unmarked) [vitetrifolin D, reference compound]
IC50 ([1]; read-out: Hh inhibition IC50): 20.2 µM
